{"source": "patent US20250381121A1", "about": "“COMPOSITION FOR PERSONAL CARE PRODUCTS” (VAGINAL BIOME SCIENCE, INC., priority 2024, published 2025)", "key": {"[1]": {"system": "herpes simplex virus (HSV-2)", "details": "cited from earlier work"}, "[2]": {"system": "Lactobacillus crispatus", "assay": "Growth of Lactobacillus crispatus with UV-irradiated acemannan over 24 hours", "assay_type": "cell-based", "experimental": "Growth media contained Dextrose-Free Sharpe (MRS) broth and Lactobacilli MRS Agar or an equivalent. Extract of irradiated aloe vera was further added to the MRS broth at 0.1 and 0.3% (w/v). A predetermined number of bacteria was added to each of the prepared medium and cultured at 37° C. under a suitable condition for the organism to be tested (anaerobic conditions for L. crispatus and L. gasseri). A small portion of the culture was removed at 2, 4, 6, 8, 12, 14, 16, 18, and 24 hours of culture. At each time point, collected samples containing the growing organisms are plated to quantify the live cell number.\nThe cell growth of Lactobacillus crispatus and Lactobacillus gasseri was determined by serial dilutions and plating to determine the bacterial counts at designated time points during the 24-h study period. Plates were cultured at 37° C. under a suitable condition for the organism to be tested (anaerobic conditions for L. crispatus and L. gasseri). Bacterial colonies were quantified at 0 and 16 hours after incubation.\nThe experiments were carried out using the method described above for EXAMPLE 4. Lactobacillus crispatus was cultured in the presence of varying concentrations (0.1%, 0.2%, 0.3%, 0.5%) of UV-irradiated acemannan or a negative control over a 24-hour period. Bacterial growth was quantified at 10 time points (0-24 hours) using log-scaled CFU/mL equivalents."}}, "note": "Like-named read-outs stand apart in the source and are kept apart here."}
{"molecule": "CCCCCCCCCCCC(=O)OCC(O)CO", "note": "(stereo not drawn) [glycerol monolaurate (GML), glycerol monolaurate]", "values": [{"measurement": "susceptibility to herpes simplex virus (HSV-2)", "setting": "[1]; 5% as a colloidal suspension in phosphate buffered saline, single exposure", "result": "markedly increased"}, {"measurement": "susceptibility to herpes simplex virus (HSV-2)", "setting": "[1]; 5% formulated in K-Y Warming Jelly, single exposure", "result": "markedly increased"}]}
{"molecule": "CC(O)CO", "note": "(stereo not drawn) [propylene glycol]", "values": [{"measurement": "susceptibility to herpes simplex virus (HSV-2)", "setting": "[1]; in vivo", "result": "markedly increased"}]}
{"molecule": "acemannan", "values": [{"measurement": "enhancement of L. crispatus growth compared with negative control", "setting": "[2]; 0.3% acemannan, at 10 hours (p<0.05)", "result": "significant enhancement of growth"}, {"measurement": "stimulation of L. crispatus growth over negative control", "setting": "[2]; 0.5% acemannan, significant at 6, 8, 10 and 18 hours (p<0.05)", "result": "most robust and consistent stimulation"}]}
{"molecule": "polyethylene glycol [polyethylene glycol (PEG-8)]", "values": [{"measurement": "susceptibility to herpes simplex virus (HSV-2)", "setting": "[1]; in vivo", "result": "markedly increased"}]}
